Data on one compound can be found in paper PMC8911992, “In Vitro and Computational Studies of Perezone and Perezone Angelate as Potential Anti-Glioblastoma Multiforme Agents” (Molecules, 2022).

The structures appear in SMILES notation.

The target of this experiment is T1, PARP-1 (Homo sapiens, UniProt P09874).
T1 construct: gene PARP1
Description: PARP-1 colorimetric assay kit (BPS Bioscience […]). Type of experiment: biochemical.

T1 sequence (P09874 2-1014): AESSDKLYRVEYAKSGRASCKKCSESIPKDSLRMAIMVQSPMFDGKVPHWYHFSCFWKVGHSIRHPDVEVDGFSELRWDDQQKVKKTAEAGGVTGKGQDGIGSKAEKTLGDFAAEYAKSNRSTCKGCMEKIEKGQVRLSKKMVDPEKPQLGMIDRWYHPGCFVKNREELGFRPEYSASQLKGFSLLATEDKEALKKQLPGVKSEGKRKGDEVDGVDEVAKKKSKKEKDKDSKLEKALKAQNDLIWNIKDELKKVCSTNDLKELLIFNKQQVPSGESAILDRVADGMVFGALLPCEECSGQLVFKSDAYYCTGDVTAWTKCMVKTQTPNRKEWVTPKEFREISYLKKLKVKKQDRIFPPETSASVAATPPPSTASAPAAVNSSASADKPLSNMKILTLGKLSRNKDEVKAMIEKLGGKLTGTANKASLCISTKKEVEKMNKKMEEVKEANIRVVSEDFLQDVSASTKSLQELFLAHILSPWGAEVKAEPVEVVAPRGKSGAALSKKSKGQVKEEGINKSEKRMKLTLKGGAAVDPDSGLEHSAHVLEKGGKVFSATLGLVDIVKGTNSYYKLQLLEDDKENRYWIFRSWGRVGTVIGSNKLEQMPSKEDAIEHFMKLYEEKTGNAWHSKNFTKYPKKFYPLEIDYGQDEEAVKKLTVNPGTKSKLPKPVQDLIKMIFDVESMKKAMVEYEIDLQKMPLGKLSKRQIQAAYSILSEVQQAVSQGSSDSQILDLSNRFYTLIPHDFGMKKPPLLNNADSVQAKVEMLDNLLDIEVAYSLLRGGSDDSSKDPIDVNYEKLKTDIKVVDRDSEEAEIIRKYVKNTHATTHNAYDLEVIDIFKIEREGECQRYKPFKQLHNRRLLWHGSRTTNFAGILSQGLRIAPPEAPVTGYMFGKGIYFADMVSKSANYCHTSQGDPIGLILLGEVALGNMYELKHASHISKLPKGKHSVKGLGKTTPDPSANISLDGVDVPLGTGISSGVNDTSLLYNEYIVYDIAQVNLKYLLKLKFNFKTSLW

Broadly, the IC50 is the midpoint of a concentration-inhibition curve. As to `C/C=C(/C)C(=O)OC1=C(C(C)CCC=C(C)C)C(=O)C=C(C)C1=O` (stereo not shown) [perezone angelate], the IC50 was 5.25 µM.
